The source of these data is paper PMC6838683, “Discovery of Human Signaling Systems: Pairing Peptides to G Protein-Coupled Receptors” (Cell, 2019).

Like-named read-outs stand apart in the source and are kept apart here. Positions of bridges follow the written chain, without caps; N, C: chain ends. No end group written: not given here.

The target in experiment [1] is T1, GPR139 (Homo sapiens, UniProt Q6DWJ6).
T1 construct: hIL-2Ra signal peptide (N); expressed in transfected cells
T1 sequence (Q6DWJ6 2-353 limits assumed): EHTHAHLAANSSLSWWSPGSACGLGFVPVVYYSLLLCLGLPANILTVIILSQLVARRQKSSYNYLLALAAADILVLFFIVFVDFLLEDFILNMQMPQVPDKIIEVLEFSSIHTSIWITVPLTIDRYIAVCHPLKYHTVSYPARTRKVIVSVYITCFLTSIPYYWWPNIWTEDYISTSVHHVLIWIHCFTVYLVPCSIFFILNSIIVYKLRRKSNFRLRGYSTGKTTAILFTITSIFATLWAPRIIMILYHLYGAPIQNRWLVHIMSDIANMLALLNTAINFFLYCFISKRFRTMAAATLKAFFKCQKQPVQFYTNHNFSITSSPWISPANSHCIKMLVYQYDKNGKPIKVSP
In words: Repeat of proposed literature pairing (mass redistribution and/or internalization). The format is cell-based. An excerpt:
(§1) DMR assays provide a single integrated readout of ligand-dependent cellular response, utilizing an optical biosensor in specialized microplates to detect wavelength shifts of reflected light as it passes through the biosensor and the lower portion of the cell (∼150-200 nm). As a signal pathway agnostic approach, DMR assays are well-suited to the study of GPCRs ([Fang et al., 2008], [Schröder et al., 2011]). The mass redistribution response (Δ picometer (pm)) likely reflects a number of intracellular events, including cytoskeletal rearrangement, protein trafficking and receptor internalization. Orphan receptor-expressing cells were gently washed twice with assay buffer (HBSS with 1 mM CaCl2, 1 mM MgCl2, 20 mM HEPES, 0.01% pluronic F-68, pH 7.4) containing 0.1% DMSO and cells were equilibrated for 90 min at 22°C in the EPIC Benchtop (BT) System (Corning) to establish a stable DMR signal. After 3-5 min baseline recordings, peptides (10 μM) were added in duplicate wells using an electronic 384-channel Viaflo pipette (Integra Biosciences, Switzerland) and DMR responses were measured for 60 min at 22°C. 100 nM norepinephrine was included as an internal assay control to assess the cellular DMR response via endogenously-expressed adrenoceptors in the TREx 293 cells. Real-time data were processed using the BT to column converter MS-Excel macro (Corning) and analyzed in GraphPad Prism 7.0. DMR recordings in peptide screening experiments were buffer and solvent corrected and the area under the curve (AUC) was quantified. For subsequent validation experiments, peptides were diluted in assay buffer containing 0.1% DMSO and DMR assays were performed as above. […] Data represent mean ± standard error of the mean (SEM) from at least 3 biologically independent experiments.
A TR-FRET real-time internalization assay was used to examine peptide-dependent changes in orphan receptor localization as described previously ([Foster and Bräuner-Osborne, 2018]). Surface-expressed SNAP-tagged receptors were labeled with a cell-impermeable luminescent terbium cryptate (100 nM SNAP Lumi4-Tb; Cisbio, France) for 1 hr at 37°C. Cells were washed to remove excess terbium and incubated with fluorescein-O-acetic acid (100 μM; Sigma Aldrich) for 5 min at 37°C. Peptides were added as for DMR assays, and internalization responses were recorded for 60 min at 37°C using an EnVision 2104 Multimode plate reader (PerkinElmer). 100 nM GLP-1 was used as a positive control for SNAP-GLP1R internalization. Real-time internalization responses were calculated based on TR-FRET (excitation 340 nm; emission 520 nm and 615 nm), and were expressed as the ratio between donor (terbium) and acceptor (fluorescein) emission. For peptide screening analysis (both DMR and internalization assays), we calculated the area under the curve from the real-time traces. […] Validation experiments for receptor internalization were performed as above. Internalization data was processed in MS-Excel and area under the curve was used to generate concentration-response curves using GraphPad Prism 7.0. Data represent mean ± standard error of the mean (SEM) from at least 3 biologically independent experiments.

Experiment [2] deals with human GPCRs. Also noted: method as in Guide to Pharmacology database. Particulars: max reported value, ref Guide to Pharmacology database, cited from earlier work. The source says: Supplement mmc1.xlsx, sheet "HumanGPCRLigands" | column: pKi_value; pKd_value; pEC50_value; pIC50_value
Experiment [3] deals with T2, NPFF1 (Homo sapiens, UniProt Q9GZQ6).
T2 construct: host or cells: HTLA cells (HEK293-derived)
In words: β-arrestin recruitment (Tango), known peptide receptors. Particulars: mean, n = 3. Type of experiment: cell-based. The source says: Supplement mmc7.xlsx, sheet "Peptide validation data" | column: Emax; pEC50
On the technique in general: Activated receptors often draw arrestin, which recruitment assays turn into a signal.

The target of experiment [4] is T3, GPR15 (Homo sapiens, UniProt P49685).
T3 construct: hIL-2Ra signal peptide (N); expressed in transfected cells
T3 sequence (P49685 2-360 limits assumed): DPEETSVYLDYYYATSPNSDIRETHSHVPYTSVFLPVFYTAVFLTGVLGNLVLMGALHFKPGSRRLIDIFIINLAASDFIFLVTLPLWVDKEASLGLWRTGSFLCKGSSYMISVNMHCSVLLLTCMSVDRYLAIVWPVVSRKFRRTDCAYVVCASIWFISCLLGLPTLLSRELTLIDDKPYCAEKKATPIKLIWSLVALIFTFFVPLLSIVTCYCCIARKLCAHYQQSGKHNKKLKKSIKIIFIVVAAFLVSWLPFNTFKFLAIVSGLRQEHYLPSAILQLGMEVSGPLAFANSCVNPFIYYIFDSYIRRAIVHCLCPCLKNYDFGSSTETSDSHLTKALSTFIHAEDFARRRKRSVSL
In words: cAMP inhibition (Gi/o), HTRF with forskolin. Particulars: receptor GPR15, mean, SEM and n (4). The format is cell-based. As to the method: Peptide-dependent second messenger responses were measured using commercially available HTRF-based IP1 and cAMP kits (Cisbio) as described previously ([Nørskov-Lauritsen et al., 2014]). Receptor expression was induced for 48 hr with 0.1 μg/ml doxycycline in 10 cm dishes. For IP1 measurements (to measure Gq/11), 2,500 cells/well were mixed with ligands in triplicate wells in low volume white 384-well plates at 37°C for 30 min. For cAMP assays, 2,500 cells/well were added in triplicate wells in white 384-well plates in the absence or presence of 3 μM forskolin (to measure Gs and Gi/o activation respectively). 100 μM IBMX was included to prevent cAMP degradation during 30 min stimulation on a plate shaker at room temperature. For both assays, HTRF was measured using an EnVision 2104 Multimode plate reader (PerkinElmer).
(Time-resolved FRET reads energy transfer from a long-lived donor to a nearby acceptor.)

The target of experiment [5] is T3, GPR15. Put plainly: Dynamic mass redistribution (DMR), concentration-response. Type of experiment: cell-based. Particulars: receptor GPR15, mean; for DMR assays Emax (peak or AUC): SEM and n (2-3). As to the method:
(§2) 48 hr prior to parallel assaying, SNAP-tagged oGPCR cells were plated (10,000 cells/well) in fibronectin-coated 384-well Epic biosensor microplates (Corning) and poly-D-lysine coated white 384-well plates (for internalization assays). SNAP- GLP-1 receptor was plated alongside orphan receptor cells as an internal assay control for internalization assays. Receptor-expression was induced with 0.1 μg/ml doxycycline.
as §1

Experiment [6] has as its target T3, GPR15. In words: Real-time receptor internalization (TR-FRET), concentration-response. The format is cell-based. Particulars: mean, SEM and n (3). As to the method:
as §2
(§3) A TR-FRET real-time internalization assay was used to examine peptide-dependent changes in orphan receptor localization as described previously ([Foster and Bräuner-Osborne, 2018]). Surface-expressed SNAP-tagged receptors were labeled with a cell-impermeable luminescent terbium cryptate (100 nM SNAP Lumi4-Tb; Cisbio, France) for 1 hr at 37°C. Cells were washed to remove excess terbium and incubated with fluorescein-O-acetic acid (100 μM; Sigma Aldrich) for 5 min at 37°C. Peptides were added as for DMR assays, and internalization responses were recorded for 60 min at 37°C using an EnVision 2104 Multimode plate reader (PerkinElmer). 100 nM GLP-1 was used as a positive control for SNAP-GLP1R internalization. Real-time internalization responses were calculated based on TR-FRET (excitation 340 nm; emission 520 nm and 615 nm), and were expressed as the ratio between donor (terbium) and acceptor (fluorescein) emission. For peptide screening analysis (both DMR and internalization assays), we calculated the area under the curve from the real-time traces. As the magnitude of the responses was variable between orphan receptor targets, particularly for the SNAP-tag based internalization assay where the signal is dependent on receptor surface expression, the AUC values were normalized to their respective plate averages and expressed as fold change. Validation experiments for receptor internalization were performed as above. Internalization data was processed in MS-Excel and area under the curve was used to generate concentration-response curves using GraphPad Prism 7.0. Data represent mean ± standard error of the mean (SEM) from at least 3 biologically independent experiments.

Experiment [7] concerns the target T4, MAS1 (Homo sapiens, UniProt P04201).
T4 construct: host or cells: HTLA cells (HEK293-derived)
T4 sequence (P04201 1-325): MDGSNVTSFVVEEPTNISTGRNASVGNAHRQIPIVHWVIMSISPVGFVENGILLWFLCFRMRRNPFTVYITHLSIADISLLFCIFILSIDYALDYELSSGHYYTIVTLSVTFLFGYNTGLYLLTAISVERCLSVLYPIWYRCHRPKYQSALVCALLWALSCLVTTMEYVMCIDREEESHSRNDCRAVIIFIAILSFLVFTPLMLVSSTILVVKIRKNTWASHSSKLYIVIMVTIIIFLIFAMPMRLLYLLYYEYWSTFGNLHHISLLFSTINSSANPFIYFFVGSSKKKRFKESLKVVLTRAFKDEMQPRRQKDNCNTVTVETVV
Put plainly: β-arrestin recruitment (Tango), indicative pairing. The format is cell-based. Particulars: mean, n = 3. As to the method: The peptide library was additionally screened against 120 GPCR targets in parallel, including all available orphan receptors and 27 known class A peptide receptors using the Tango assay platform ([Kroeze et al., 2015]). Briefly, HTLA cells (a HEK293 cell line stably expressing a tTA-dependent luciferase reporter and a β-arrestin2-TEV fusion gene) were plated 10,000 cells/well in poly-L-lysine–coated clear-bottom white 384-well plates in DMEM supplemented with 10% FBS, 100 U/ml penicillin and 100 μg/ml streptomycin, 2 μg/ml puromycin and 100 μg/ml hygromycin B. 24 hr later, cells were transfected with Tango GPCR constructs using the calcium phosphate method ([Jordan et al., 1996]). The next day, culture medium was changed to DMEM + 1% dFBS and 10 μM peptides were added for overnight stimulation. Bright-Glo solution (Promega) was incubated for 15–20 min at room temperature, and luminescence was counted using a Trilux luminescence counter (Wallac).
For subsequent peptide validation experiments using Tango assays, HTLA cells were transiently transfected in 10 cm dishes with the receptor of interest using polyethylenimine (PEI) ([Longo et al., 2013]). After 24 hr, 25,000 cells/well were plated in clear bottom, white-walled 384-well plates. Assays were performed as described above, with luminescence measured using an EnSpire 2300 Multimode plate reader (PerkinElmer). Luminescence counts were exported into Excel and were analyzed using GraphPad Prism 7.

The test system of experiment [8] is GPR37. Put plainly: Repeat of proposed literature pairing (mass redistribution and/or internalization). The format is cell-based, human. Particulars: repeat of literature pairing; Figure S7A, Tables S5 and S7.
Description: as §1, §3

T2 sequence (Q9GZQ6 whole entry): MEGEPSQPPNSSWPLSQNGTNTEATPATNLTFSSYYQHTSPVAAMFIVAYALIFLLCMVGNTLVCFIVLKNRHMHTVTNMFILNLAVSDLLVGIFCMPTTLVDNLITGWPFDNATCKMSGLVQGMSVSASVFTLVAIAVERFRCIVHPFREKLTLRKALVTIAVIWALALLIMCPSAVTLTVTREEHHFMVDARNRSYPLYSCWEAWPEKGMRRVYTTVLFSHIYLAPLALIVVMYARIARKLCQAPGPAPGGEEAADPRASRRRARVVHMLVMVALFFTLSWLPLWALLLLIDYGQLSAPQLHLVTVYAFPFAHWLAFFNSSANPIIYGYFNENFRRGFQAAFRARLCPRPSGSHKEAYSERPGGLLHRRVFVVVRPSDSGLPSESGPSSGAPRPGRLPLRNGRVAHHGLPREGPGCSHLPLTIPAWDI

As to “ACTH (SYSMEHFRWGKPVGKKRRPVKVYPNGAEDESAEAFPLEF; Corticotropin; UniProt P01189 138-176, looked up) [melanocortin receptor ligand, reference compound]”, the “Peptide pairing for orphan receptor GPR139 (confirmed/unconfirmed)” value in experiment [1] (repeat of literature pairing) was “Confirmed peptide pairings for orphans”. Moreover, in experiment [1] (repeat of literature pairing across multiple assays, Figure S7A, Tables S5 and S7), the “receptor-dependent activation by proposed ligand, GPR139” value was “selective receptor-dependent activation”. Also, the pKi_value is listed as 7.1 in experiment [2] (receptor mc3r_human (MC3R, P41968)); 6.2 in experiment [2] (receptor mc4r_human (MC4R, P32245)); 5 in experiment [2] (receptor mc5r_human (MC5R, P33032)); 8.6 in experiment [2] (receptor mshr_human (MC1R, Q01726)).

As to ARANMEAGTMSHFPSLPQRF [Peptide 135], in experiment [3], the “Emax, Tango (fold over basal)” value is 22.0 fold over basal and the “pEC50, Tango (fold over basal)” value was 6.22.

KRRPAKAWS [Peptide 64.1]: the “cAMP accumulation assays Emax (% FSK)” value in experiment [4] was determined as 98.3 % FSK. Further, the “DMR assays Emax (peak or AUC)” value in experiment [5] was found to be 107. Also, the “Internalization assays Emax (AUC)” value in experiment [6] is given as 3.1.

By Emax is commonly meant the size of the effect at its maximum, as opposed to the concentration needed. As for “KRRPAKAWSGRRTRLCCHRVPSPNSTNLKGHHVRLCKPCKLEPEPRLWVVPGALPQV (disulfide 16-39, 17-36) [64.4 (Phoenix)]”, the Emax in experiment [4] (read-out: cAMP accumulation assays Emax (% FSK)) was determined as 41%. Moreover, the EC50 is 1.26 nM in experiment [4] (read-out: cAMP accumulation assays pEC50 (converted)); 324 nM in experiment [5] (SEM and n (3), read-out: DMR assays pEC50 (converted)); 89.1 nM in experiment [6] (read-out: Internalization assays pEC50 (converted)).

Regarding LWVVPGALPQV [64 original], in experiment [4], the “cAMP accumulation assays Emax (% FSK)” value turned out to be 29.2 % FSK. For the same substance, the “DMR assays Emax (peak or AUC)” value in experiment [5] amounted to 197. In addition, in experiment [6], the “Internalization assays Emax (AUC)” value was 45.8.

Turning to “NAWGPWSKEQLSPQAREFWSLAAPQRF [Peptide 166]”, the “Emax, Tango (fold over basal)” value is 1.2 fold over basal in experiment [7] and 26.7 fold over basal in experiment [3]. In addition, the entries for the “pEC50, Tango (fold over basal)” value in experiment [7] and in experiment [3] were 7.14 and 4.75, respectively.

In the case of RPYLTQGNEIFPD [Peptide 90], in experiment [3], the “Emax, Tango (fold over basal)” value turned out to be 9.6 fold over basal and the “pEC50, Tango (fold over basal)” value came out at 4.27.

Regarding “TRLCCHRVPSPNSTNLKGHHVRLCKPCKLEPE (also: bicyclic or more (positions not given here)) [Peptide 64.2]”, in experiment [4], the “cAMP accumulation assays Emax (% FSK)” value is given as 92.5 % FSK. Further, in experiment [5], the “DMR assays Emax (peak or AUC)” value is listed as 81. Moreover, the “Internalization assays Emax (AUC)” value in experiment [6] is 4.3.

As to head activator, the “receptor-dependent activation by proposed ligand, GPR37” value in experiment [8] was “no activity”.
